Data on 78 compounds can be found in PubChem BioAssay AID743388 (Vanderbilt Specialized Chemistry Center, 2014).

Several values for one entry are separate records, joined by “and”; a condition that tells them apart may be missing. Equal entries are not always repeated. Activity calls are given as the source filed them. How the calls were made is not given here.

The test addresses Phospholipase D1 (Homo sapiens) (UniProt Q13393). The test is described as follows: PLD1-selective inhibitors in cells (AID 743388). To be noted: Calu-1 cells, PMA-stimulated, PtdBuOH-d9 by mass spectrometry, 30 min; at 20 µM; stronger effect = higher value.

Phospholipase D1 (Homo sapiens), sequence (Q13393 whole entry, looked up): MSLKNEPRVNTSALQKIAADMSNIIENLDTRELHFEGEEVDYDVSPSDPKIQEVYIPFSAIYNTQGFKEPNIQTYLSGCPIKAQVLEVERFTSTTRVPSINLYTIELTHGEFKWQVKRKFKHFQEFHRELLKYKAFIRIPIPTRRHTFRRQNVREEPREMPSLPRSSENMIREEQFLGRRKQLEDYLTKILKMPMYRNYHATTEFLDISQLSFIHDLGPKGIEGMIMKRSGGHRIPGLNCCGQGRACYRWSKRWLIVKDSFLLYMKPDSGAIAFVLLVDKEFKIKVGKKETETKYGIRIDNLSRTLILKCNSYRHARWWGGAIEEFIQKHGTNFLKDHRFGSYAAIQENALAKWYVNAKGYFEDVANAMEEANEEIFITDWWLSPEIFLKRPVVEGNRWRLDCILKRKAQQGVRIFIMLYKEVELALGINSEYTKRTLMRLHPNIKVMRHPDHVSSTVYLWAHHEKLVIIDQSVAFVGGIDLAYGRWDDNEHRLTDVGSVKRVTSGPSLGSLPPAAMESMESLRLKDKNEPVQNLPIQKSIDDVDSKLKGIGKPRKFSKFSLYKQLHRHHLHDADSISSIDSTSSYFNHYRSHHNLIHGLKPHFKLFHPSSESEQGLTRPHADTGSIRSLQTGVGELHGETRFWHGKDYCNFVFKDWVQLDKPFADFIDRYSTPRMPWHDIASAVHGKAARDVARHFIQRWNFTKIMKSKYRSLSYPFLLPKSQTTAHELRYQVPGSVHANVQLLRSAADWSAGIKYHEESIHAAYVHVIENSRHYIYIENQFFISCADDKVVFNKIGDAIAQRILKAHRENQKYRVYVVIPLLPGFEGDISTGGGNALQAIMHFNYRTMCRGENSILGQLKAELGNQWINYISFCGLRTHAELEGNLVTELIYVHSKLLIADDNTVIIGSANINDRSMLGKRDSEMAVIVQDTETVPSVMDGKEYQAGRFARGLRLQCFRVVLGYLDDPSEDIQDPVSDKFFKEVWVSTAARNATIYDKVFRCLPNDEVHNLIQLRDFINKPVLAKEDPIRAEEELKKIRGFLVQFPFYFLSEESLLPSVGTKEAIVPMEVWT

On to `O=C(NCCN1CCC2(CC1)C(=O)NCN2Cc1cccc(OC(F)(F)F)c1)c1ccc2ccccc2c1`, for which the inhibition (as a rule, the percentage by which the read-out fell short of the control) is 10% (inactive).

As to `O=C(NCCN1CCC2(CC1)C(=O)NCN2c1ccnc(F)c1)c1ccc2ccccc2c1`, the inhibition was 3% (inactive).

As to `O=C(NCCN1CCC2(CC1)C(=O)NCN2c1cncc(F)c1)c1cc(F)c(F)c(F)c1`, the inhibition is 17% (inactive).

For `Cc1cc(C)c2cc(C(=O)NCCN3CCC4(CC3)C(=O)NCN4Cc3cccnc3)[nH]c2c1`, the inhibition was 13% (inactive).

Turning to `O=C(NCCN1CCC2(CC1)C(=O)NCN2Cc1cccnc1)c1ccc(F)cc1C(F)(F)F`, the inhibition was 0% (inactive).

For the compound `O=C(NCCN1CCC2(CC1)C(=O)NCN2c1cncc(Br)c1)c1ccc2ccccc2c1`, the inhibition is 9% (inactive).

With `O=C(NCCN1CCC2(CC1)C(=O)NCN2Cc1cccnc1)c1ccc2c(c1)C(=O)NC2=O`, the inhibition is 13% (inactive).

As for `O=C(NCCN1CCC2(CC1)C(=O)NCN2Cc1cccnc1)c1sc2ncccc2c1-n1cccc1`, the inhibition was 29% (inactive).

As for `O=C(NCCN1CCC2(CC1)C(=O)NCN2Cc1cccnc1)c1ccnc2ccccc12`, the inhibition was 13% (inactive).

With `O=C(NCCN1CCC2(CC1)C(=O)NCN2c1ccc(C(F)(F)F)nc1)c1ccc2ccccc2c1`, the inhibition was 2% (inactive).

Take `O=C(NCCN1CCC2(CC1)C(=O)NCN2Cc1cccc(Cl)c1)c1ccc2ccccc2c1`: the inhibition is 89%.

On to `O=C(NCCN1CCC2(CC1)C(=O)NCN2Cc1cccnc1)c1ccc(F)c(F)c1`, for which the inhibition is 3% (inactive).

Turning to `O=C(NCCN1CCC2(CC1)C(=O)NCN2CC1CC1)c1ccc2ccccc2c1`, the inhibition is 43% (inactive).

As to `O=C(NCCN1CCC2(CC1)C(=O)NCN2Cc1cccnc1)c1cc2ccccc2[nH]1`, the inhibition was 64%.

Consider `O=C(NCCN1CCC2(CC1)C(=O)NCN2Cc1ccc(Cl)cc1)c1ccc2ccccc2c1`, for which the inhibition was 64%.

Consider `O=C(NCCN1CCC2(CC1)C(=O)NCN2c1cccnc1)c1cc2cc(F)ccc2[nH]1`, for which the inhibition was 9% (inactive).

On to `COc1cccc(C(=O)N2CNC(=O)C23CCN(CCNC(=O)c2ccc4ccccc4c2)CC3)c1`, for which the inhibition is 50%.

Regarding `Cc1cc(Br)cnc1C(=O)NCCN1CCC2(CC1)C(=O)NCN2Cc1cccnc1`, the inhibition is 0% (inactive).

In the case of `O=C(NCCN1CCC2(CC1)C(=O)NCN2Cc1cccnc1)c1cc2cc(F)ccc2[nH]1`, the inhibition was 4% (inactive).

Regarding `O=C(NCCN1CCC2(CC1)C(=O)NCN2c1ccnc(Cl)c1)c1ccc2ccccc2c1`, the inhibition was 0% (inactive).

For the compound `O=C(NCCN1CCC2(CC1)C(=O)NCN2Cc1cccnc1)c1cccc(C(F)(F)F)c1`, the inhibition was 0% (inactive).

With `COc1cc(C(=O)NCCN2CCC3(CC2)C(=O)NCN3Cc2cccnc2)cc(OC)c1OC`, the inhibition was 0% (inactive).

Take `O=C(NCCN1CCC2(CC1)C(=O)NCN2Cc1cccnc1)[C@@H]1C[C@H]1c1ccccc1`: the inhibition is 23% (inactive).

With `O=C(NCCN1CCC2(CC1)C(=O)NCN2c1cncc(F)c1)c1ccc(Br)cc1`, the inhibition is 12% (inactive).

On to `O=C(NCCN1CCC2(CC1)C(=O)NCN2Cc1ccccc1)c1ccc2ccccc2c1`, for which the inhibition is 72%.

As to `O=C(NCCN1CCC2(CC1)C(=O)NCN2Cc1cccnc1)c1ccc(Cl)c(Cl)c1`, the inhibition is 13% (inactive).

For `O=C(NCCN1CCC2(CC1)C(=O)NCN2Cc1cccnc1)c1nc(-c2ccc(F)cc2)no1`, the inhibition was 30% (inactive).

Turning to `O=C(NCCN1CCC2(CC1)C(=O)NCN2C(=O)C1CC1)c1ccc2ccccc2c1`, the inhibition was 83%.

In the case of `O=C(NCCN1CCC2(CC1)C(=O)NCN2c1cncc(F)c1)c1ccc(F)c(F)c1`, the inhibition was 17% (inactive).

Consider `O=C(NCCN1CCC2(CC1)C(=O)NCN2c1cccnc1)c1ccc2ccccc2c1`, for which the inhibition is 7% (inactive).

On to `Cn1c(C(=O)NCCN2CCC3(CC2)C(=O)NCN3Cc2cccnc2)cc2ccccc21`, for which the inhibition is 10% (inactive).

For the compound `O=C(NCCN1CCC2(CC1)C(=O)NCN2Cc1cccnc1)c1ccc2cc(F)ccc2c1`, the inhibition was 9% (inactive).

Regarding `O=C(NCCN1CCC2(CC1)C(=O)NCN2Cc1ccncc1)c1ccc2ccccc2c1`, the inhibition is 53%.

`O=C(NCCN1CCC2(CC1)C(=O)NCN2c1cccnc1)c1cc(F)c(F)c(F)c1`: the inhibition was 6% (inactive).

Turning to `O=C(NCCN1CCC2(CC1)C(=O)NCN2Cc1cccnc1)c1cccs1`, the inhibition was 3% (inactive).

Take `O=C(NCCN1CCC2(CC1)C(=O)NCN2c1cncc(F)c1)c1cc2cc(F)ccc2[nH]1`: the inhibition was 26% (inactive).

As for `O=C(NCCN1CCC2(CC1)C(=O)NCN2Cc1cccnc1)c1ccc2ccccc2c1`, the inhibition was 37% (inactive) and 38% (inactive).

`O=C(NCCN1CCC2(CC1)C(=O)NCN2Cc1cccnc1)c1ccc(SC(F)(F)F)cc1`: the inhibition is 5% (inactive).

In the case of `O=C(NCCN1CCC2(CC1)C(=O)NCN2Cc1cccnc1)c1ccc(C(F)(F)F)cc1`, the inhibition was 0% (inactive).

With `O=C(NCCN1CCC2(CC1)C(=O)NCN2c1cccnc1)c1ccc(Br)cc1`, the inhibition is 0% (inactive).

Take `O=C(NCCN1CCC2(CC1)C(=O)NCN2Cc1cccnc1)c1ccc(F)cc1Cl`: the inhibition was 0% (inactive).

`Cc1ccc(S(=O)(=O)NCCN2CCC3(CC2)C(=O)NCN3Cc2cccnc2)cc1`: the inhibition was 0% (inactive).

With `O=C(NCCN1CCC2(CC1)C(=O)NCN2c1cncc(F)c1)c1ccc(F)cc1`, the inhibition is 25% (inactive).

As for `O=C(NCCN1CCC2(CC1)C(=O)NCN2Cc1cccnc1)c1ccc2ccccc2n1`, the inhibition was 11% (inactive).

As to `O=C(NCCN1CCC2(CC1)C(=O)NCN2Cc1ccccc1F)c1ccc2ccccc2c1`, the inhibition was 77% and 87%.

Take `O=C(NCCN1CCC2(CC1)C(=O)NCN2Cc1cccnc1)c1cc(F)c(F)c(F)c1`: the inhibition is 0% (inactive).

As for `O=C(NCCN1CCC2(CC1)C(=O)NCN2c1cccnc1)c1ccc(F)cc1`, the inhibition was 7% (inactive).

Consider `O=C(NCCN1CCC2(CC1)NCNC2=O)c1ccc2ccccc2c1`, for which the inhibition was 7% (inactive).

As for `O=C(NCCN1CCC2(CC1)C(=O)NCN2Cc1cccnc1)c1ccc(Cl)cc1Cl`, the inhibition is 0% (inactive).

Regarding `O=C(NCCN1CCC2(CC1)C(=O)NCN2Cc1ccccc1Br)c1ccc2ccccc2c1`, the inhibition is 96%.

For `O=C(NCCN1CCC2(CC1)C(=O)NCN2c1cccnc1)c1ccc(F)c(F)c1`, the inhibition is 16% (inactive).

As to `O=C(NCCN1CCC2(CC1)C(=O)NCN2Cc1cccnc1)c1cccc2cccnc12`, the inhibition was 4% (inactive).

Regarding `O=C(NCCN1CCC2(CC1)C(=O)NCN2Cc1cccnc1)c1ccc2ccccc2c1Br`, the inhibition is 10% (inactive).

As for `O=C(NCCN1CCC2(CC1)C(=O)NCN2C(=O)c1ccccc1)c1ccc2ccccc2c1`, the inhibition was 45% (inactive).

Turning to `O=C(NCCN1CCC2(CC1)C(=O)NCN2Cc1cccnc1)c1nccc2ccccc12`, the inhibition was 0% (inactive).

With `O=C(NCCN1CCC2(CC1)C(=O)NCN2Cc1cccnc1)c1ccc(F)cc1F`, the inhibition was 7% (inactive).

For `O=C(NCCN1CCC2(CC1)C(=O)NCN2Cc1cccnc1)c1cc2ccccc2o1`, the inhibition is 14% (inactive).

With `Cc1nc2sc(C(=O)NCCN3CCC4(CC3)C(=O)NCN4Cc3cccnc3)c(N)c2c(C)c1C`, the inhibition is 9% (inactive).

Regarding `O=C(NCCN1CCC2(CC1)C(=O)NCN2Cc1ccccn1)c1ccc2ccccc2c1`, the inhibition was 88%.

`O=C(NCCN1CCC2(CC1)C(=O)NCN2Cc1cccnc1)c1c(Cl)cncc1Cl`: the inhibition is 20% (inactive).

Take `Cn1cc(C(=O)NCCN2CCC3(CC2)C(=O)NCN3Cc2cccnc2)c2ccccc21`: the inhibition is 5% (inactive).

Take `O=C(NCCN1CCC2(CC1)C(=O)NCN2Cc1cccnc1)c1c(F)ccc(Cl)c1F`: the inhibition was 0% (inactive).

`O=C(NCCN1CCC2(CC1)C(=O)NCN2Cc1cccnc1)c1cccc(F)c1`: the inhibition was 2% (inactive).

Consider `O=C(NCCN1CCC2(CC1)C(=O)NCN2C(=O)C1CCC1)c1ccc2ccccc2c1`, for which the inhibition was 80%.

With `O=C(NCCN1CCC2(CC1)C(=O)NCN2Cc1ccccc1Cl)c1ccc2ccccc2c1`, the inhibition was 91%.

Regarding `O=C(NCCN1CCC2(CC1)C(=O)NCN2C(=O)c1cccc(F)c1)c1ccc2ccccc2c1`, the inhibition is 50%.

With `O=C(NCCN1CCC2(CC1)C(=O)NCN2Cc1cccnc1)c1ccc(Cl)cc1F`, the inhibition was 0% (inactive).

In the case of `O=C(NCCN1CCC2(CC1)C(=O)NCN2Cc1cccnc1)c1c[nH]c2ccccc12`, the inhibition is 25% (inactive).

As for `O=C(NCCN1CCC2(CC1)C(=O)NCN2Cc1cccnc1)c1ccc(Br)cc1`, the inhibition is 9% (inactive).

`O=C(NCCN1CCC2(CC1)C(=O)NCN2Cc1cccnc1)c1cc(F)cc(F)c1`: the inhibition was 0% (inactive).

On to `O=C(NCCN1CCC2(CC1)C(=O)NCN2Cc1cccc2ccccc12)c1ccc2ccccc2c1`, for which the inhibition is 94%.

Consider `O=C(NCCN1CCC2(CC1)C(=O)NCN2Cc1cccnc1)c1cc2cccnc2[nH]1`, for which the inhibition was 16% (inactive).

Regarding `O=C(NCCN1CCC2(CC1)C(=O)NCN2Cc1cccnc1)c1ccc(F)cc1`, the inhibition is 3% (inactive).

For `Cc1cc(N2CNC(=O)C23CCN(CCNC(=O)c2ccc4ccccc4c2)CC3)ccn1`, the inhibition was 7% (inactive).

As for `O=C(NCCN1C=CC2(CC1)C(=O)NCN2Cc1cccnc1)c1cccc2nsnc12` (stereo not drawn), the inhibition is 9% (inactive).

On to `O=C(NCCN1CCC2(CC1)C(=O)NCN2Cc1cccnc1)c1ccccc1F`, for which the inhibition is 0% (inactive).

In the case of `O=C(NCCN1CCC2(CC1)C(=O)NCN2Cc1cccnc1)c1cccc(Cl)c1`, the inhibition is 0% (inactive).

Turning to `O=C(NCCN1CCC2(CC1)C(=O)NCN2c1cncc(F)c1)c1ccc2ccccc2c1`, the inhibition is 14% (inactive).
